Measurements: PubChem BioAssay AID1918948 (Molecular Pharmacology Branch, DTP, NCI, 2023)

System: K-562 leukemia growth, % test/control
Experiment: Anticancer human tumor K-562 cell line growth inhibition;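 note: spheroids exposed to compounds for 7 days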;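 for viability, T/C: 100% = DMSO vehicle wells and lower values mean fewer viable cells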
Details: spheroids with HUVEC and MSC; for IC50: curve of first compound; for viability, T/C: stronger effect = lower value
Outline: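 Drug combinations with the LSD1 inhibitor iadademstat tested on tumor cells co-cultured as spheroids with endothelial cells and mesenchymal stem cells. Concentrations descended in half-log increments from clinical Cmax or 10 microM.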

[1] = second compound 0.1 µM, first compound 0.00949 µM
[2] = second compound 0.1 µM, first compound 0.03 µM
[3] = second compound 0.1 µM, first compound 0.0949 µM
[4] = second compound 0.1 µM, first compound 0.3 µM
[5] = second compound 0.1 µM, first compound 0.949 µM
[6] = second compound 0.1 µM, first compound 3 µM
[7] = second compound 0.316 µM, first compound 0.00949 µM
[8] = second compound 0.316 µM, first compound 0.03 µM
[9] = second compound 0.316 µM, first compound 0.0949 µM
[10] = second compound 0.316 µM, first compound 0.3 µM
[11] = second compound 0.316 µM, first compound 0.949 µM
[12] = second compound 0.316 µM, first compound 3 µM
[13] = second compound 1 µM, first compound 0.00949 µM
[14] = second compound 1 µM, first compound 0.03 µM
[15] = second compound 1 µM, first compound 0.0949 µM
[16] = second compound 1 µM, first compound 0.3 µM
[17] = second compound 1 µM, first compound 0.949 µM
[18] = second compound 1 µM, first compound 3 µM
[19] = second compound 3.16 µM, first compound 0.00949 µM
[20] = second compound 3.16 µM, first compound 0.03 µM
[21] = second compound 3.16 µM, first compound 0.0949 µM
[22] = second compound 3.16 µM, first compound 0.3 µM
[23] = second compound 3.16 µM, first compound 0.949 µM
[24] = second compound 3.16 µM, first compound 3 µM
[25] = second compound 10 µM, first compound 0.00949 µM
[26] = second compound 10 µM, first compound 0.03 µM
[27] = second compound 10 µM, first compound 0.0949 µM
[28] = second compound 10 µM, first compound 0.3 µM
[29] = second compound 10 µM, first compound 0.949 µM
[30] = second compound 10 µM, first compound 3 µM

NS(=O)(=O)OCC1CC(n2ccc3c(NC4CCc5ccccc54)ncnc32)CC1O (stereo not given) + NC1CCC(NC2CC2c2ccccc2)CC1
IC50 (second compound 0.1 µM): 17.1 nM | IC50 (second compound 0.316 µM): 17 nM | IC50 (second compound 1 µM): 14.9 nM | IC50 (second compound 3.16 µM): 10.9 nM | IC50 (second compound 10 µM): < 9.49 nM | viability, T/C [1]: 58.9% | viability, T/C [2]: 36% | viability, T/C [3]: 40.5% | viability, T/C [4]: 27.8% | viability, T/C [5]: 15.8% | viability, T/C [6]: 8.88% | viability, T/C [7]: 58.9% | viability, T/C [8]: 36.4% | viability, T/C [9]: 40% | viability, T/C [10]: 21.4% | viability, T/C [11]: 13.9% | viability, T/C [12]: 9.49% | viability, T/C [13]: 56.7% | viability, T/C [14]: 36.8% | viability, T/C [15]: 37% | viability, T/C [16]: 24.7% | viability, T/C [17]: 11.8% | viability, T/C [18]: 8.79% | viability, T/C [19]: 53.5% | viability, T/C [20]: 33.4% | viability, T/C [21]: 33.1% | viability, T/C [22]: 18.8% | viability, T/C [23]: 8.53% | viability, T/C [24]: 5.87% | viability, T/C [25]: 42% | viability, T/C [26]: 22.7% | viability, T/C [27]: 17.9% | viability, T/C [28]: 8.46% | viability, T/C [29]: 3.21% | viability, T/C [30]: 1.65%

O=C(C=Cc1cccc(S(=O)(=O)Nc2ccccc2)c1)NO + NC1CCC(NC2CC2c2ccccc2)CC1
IC50 (second compound 0.1 µM): 417 nM | IC50 (second compound 0.316 µM): 421 nM | IC50 (second compound 1 µM): 430 nM | IC50 (second compound 3.16 µM): 325 nM | IC50 (second compound 10 µM): 136 nM | viability, T/C [1]: 103% | viability, T/C [2]: 105% | viability, T/C [3]: 106% | viability, T/C [4]: 69.5% | viability, T/C [5]: 1.52% | viability, T/C [6]: 0.12% | viability, T/C [7]: 106% | viability, T/C [8]: 107% | viability, T/C [9]: 108% | viability, T/C [10]: 70.2% | viability, T/C [11]: 1.56% | viability, T/C [12]: 0.11% | viability, T/C [13]: 106% | viability, T/C [14]: 107% | viability, T/C [15]: 105% | viability, T/C [16]: 72% | viability, T/C [17]: 1.58% | viability, T/C [18]: 0.93% | viability, T/C [19]: 101% | viability, T/C [20]: 99.8% | viability, T/C [21]: 97.4% | viability, T/C [22]: 53.7% | viability, T/C [23]: 1.85% | viability, T/C [24]: 0.87% | viability, T/C [25]: 65.4% | viability, T/C [26]: 59.1% | viability, T/C [27]: 61.2% | viability, T/C [28]: 25.9% | viability, T/C [29]: 1.37% | viability, T/C [30]: 0.45%
